Assay results as given in patent US9211313B2, “Methods and compound to inhibit Ca2+ permeable cation conductance” (priority 2011, dated 2015).

Tests used:
[1] = system: LPA-induced cation conductance in human SS red cells; assay: On-cell patch clamp of LPA-induced cation conductance; assay type: cell-based; conditions: 1 μM in the pipette
Source text: On-cell patch clamp: Borosilicate pipettes (Corning 7052) pulled with a Narishige two stage puller or a Sutter P97 puller and fire-polished to resistances of 10-20 MΩ were front-filled and then backfilled. Symmetric bath and pipette solutions for studies of seal resistance stability during reversibility tests of the deoxygenation-activated conductance in SAD mouse red cells were (in mM) 140 NaCl, 4 KCl, 1 CaCl2, 1 MgCl2, 10 Na HEPES, pH 7.4. These conditions yielded tight seals in 13% of patch attempts on SAD cells. For study of deoxygenation-induced monovalent cation permeation in the absence of bath Ca^2+ and Mg^2+ recorded in SAD and Berkeley mouse cells and in human cells, symmetric bath and pipette solutions contained (in mM) 150 Na methanesulfonate, 10 Na EDTA, and 10 Na HEPES, pH 7.4. These conditions yielded tight seals in 16% of patch attempts on SAD mouse red cells, 26% of attempts on Berkeley mouse cells, and 30% of attempts on human SS cells. For study of Ca^2+ permeation in human SS cells, bath and pipette solutions contained (in mM) 100 CaCl2, 10 Na HEPES, pH 7.4. These conditions yielded tights seals on 44% of attempts. For all conditions tested in human red cells, 70% of tight seals were sustained through the solution change accompanying deoxygenation to allow recording of current activity.
On-cell patch currents were recorded with the Axopatch 1-D amplifier (Axon Instruments/Molecular Devices, Sunnyvale, Calif.). Holding potential was −Vp=−50 mV (expressed as the negative of the pipette potential (e.g., equivalent to the intracellular potential with respect to the pipette). To determine current-voltage relationships (I-V curves) in Fetchex or Clampex (PCLAMP, Axon Instruments), the realtime control window in gap-free mode was used to record current traces of 10-30 sec duration at holding potentials ranging from −100 to +100 mV, in 25 mV increments. The bath reference electrode was a silver chloride wire with a 3 M KCl agar bridge. Data was filtered at 500 Hz, digitized at 2 kHz by Clampex, and analyzed offline by Fetchan and Pstat or by Clampfit subroutines of PCLAMP. Holding potentials in on-cell patch experiments were expressed as −Vp, the negative of the pipette potential.
Deoxygenation-activated flickering cation conductance observed in human SS cells contrasted with the prolonged channel openings produced by 5 μM LPA (FIG. 10A). In SS cells, LPA increased NPo […], from 0.04±0.03 to 0.82±0.18 (n=8, p<0.001; Na methanesulfonate in bath and pipette, −Vp=−50 mV; FIG. 10B). LPA-induced cation conductance was 96% inhibited by 100 uM dipyridamole in the pipette, and 97% inhibited by 1 μM GsMTx-4 in the pipette (both n=4).

[2] = system: SAD sickle mouse red cells; assay: Fluo-3 fluorescence measurement of [Ca2+]i during deoxygenation, SAD cells; assay type: cell-based; conditions: 1 μM; SAD red cells
Procedure: Blood was withdrawn by cardiac puncture or from the tail vein of C57B16/J wildtype mice, SAD sickle mice, or Berkeley sickle mice into heparinized syringes by IACUC-approved protocols of Beth Israel Deaconess Medical Center. Buffy coat-depleted cells were washed 5 times in standard mouse red cell wash solution containing (in mM) 172 choline Cl, 10 sucrose, 10 Na Tris-MOPS, pH 7.4, resuspended in storage solution, and kept at 4° C. until use.
Fluorescence measurements of cytosolic [Ca^2+] ([Ca^2+]i): After removal of plasma and buffy coat by aspiration, human or mouse red cells were washed three times at room temperature and suspended in modified Hank's solution containing (in mM), 137 NaCl, 5.4 KCl, 1 CaCl2, 1 MgCl2, 0.8 NaK phosphate, 5.6 glucose, and 10 Na HEPES, pH 7.4. Dilute cell suspensions were settled on polylysine-coated coverslips forming the bottom of an open perfusion chamber (2.5 cm diameter, 1 cm depth) and washed again 3 times.
Measurement of relative changes in [Ca^2+]i by Fluo-3 fluorescence emission was previously validated in intact human (Yang et al. 2000, Blood, 95(7):2421-2425; Andrews et al. 2002, Blood, 199(9):3392-3399) and mouse red cells (Akel et al. 2007, Amer. J. Physiol., 292(5):C1759-1767). Attached red cells were loaded in the dark with the fluorescent non-ratiometric Ca^2+ indicator Fluo-3-AM (10 μM, Molecular Probes, Eugene, Oreg.) at 37° C. for 1 hr, then washed and incubated 15 min further to allow de-esterification of intracellular dye. The open perfusion chamber containing dye-loaded cells was mounted on an Olympus IMT-2 inverted epifluorescence microscope equipped with CoolSNAP CCD camera (Photometrics, Tucson, Ariz.). Fluo-3 in cells imaged through a 60× objective was excited by mercury-xenon illumination passed through a 495ds20 filter. Fluorescence emission (proportional to [Ca^2+]i) from a 535ds20 bandpass filter was collected from all attached single cells within the arbitrarily selected visual field. Emission image acquisition was controlled by a Metafluor digital imaging system (Universal Imaging, West Chester, Pa.).
Fluo-3 fluorescence from attached cells on each coverslip was recorded 60 sec in room air and then for 10 min after onset of perfusion chamber flushing with humidified 100% N2. The normalized increase in Fluo-3 fluorescence in SS cells subjected to this deoxygenation procedure was indistinguishable from that observed during superfusion of cells in a closed perfusion chamber via syringe pump with bath previously bubbled for 60 min with 100% N2 (n=62 cells from 2 SS patients, not shown). The y-axis value of 0% change in Fluo-3 fluorescence intensity represented mean intensity recorded from all cells within the coverslip visual field during the 60 sec prior to deoxygenation.

[3] = system: mechanosensitive channel (MSC); conditions: previously shown; cited from earlier work
mdx mice = assay: Toxicity with daily subQ dosing for 30 days; assay type: in vivo, mouse
Procedure: This example describes toxicity studies with GsMTx-4. In one experiment, D-GsMTx4 was administered to 60 mdx mice and controls by daily subQ dosing at 5 mg/kg for 30 days at the Washington D.C. Wellstone center.

KCa3.1 = biological target: T1, KCa3.1 (Homo sapiens, UniProt O15554); assay: A23187-stimulated KCa3.1 activity measured as 86Rb influx; assay type: cell-based; conditions: 1 μM; intact human AA cells, 1 μM A23187, extracellular Ca2+; n=3
T1 construct: KCa3.1 activity stimulated in intact human AA cells by 1 μM A23187; endogenous in cells; host or cells: intact human AA red blood cells
T1 sequence (O15554 whole entry): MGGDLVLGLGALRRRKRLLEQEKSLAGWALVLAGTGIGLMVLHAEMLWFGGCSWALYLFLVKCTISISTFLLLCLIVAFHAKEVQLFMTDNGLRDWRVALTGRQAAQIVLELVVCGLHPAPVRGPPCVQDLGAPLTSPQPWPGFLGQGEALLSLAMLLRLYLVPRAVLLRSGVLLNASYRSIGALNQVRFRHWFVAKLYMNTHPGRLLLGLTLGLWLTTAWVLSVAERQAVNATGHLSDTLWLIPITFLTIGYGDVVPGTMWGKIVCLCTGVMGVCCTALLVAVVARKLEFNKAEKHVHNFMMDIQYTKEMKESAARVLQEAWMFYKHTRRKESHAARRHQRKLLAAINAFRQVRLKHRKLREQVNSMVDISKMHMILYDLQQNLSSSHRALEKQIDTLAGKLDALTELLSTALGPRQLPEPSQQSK

## Grammastola spatulata mechanotoxin 4 (GCLEFWWKCNPNDDKCCRPKLKCSKLFKLCNFSF; listed as Grammastola spatulata) [GsMTx-4]
[1]
  effect on LPA-induced increase in NPo: prevented
[1]; 5 μM LPA, n=4
  inhibition of LPA-induced cation conductance: 97%
[2]
  effect on increased [Ca2+]i accompanying deoxygenation: completely inhibited
[3]
  effect on mechanosensitive channel (MSC) activity: block
Mdx mice
  toxicity in mice, general statement: very low to absent toxicity
Mdx mice; 5 mg/kg subQ daily, 30 days (month long)
  toxicity: no toxicity observed
KCa3.1
  effect on KCa3.1 activity, 86Rb influx: no effect
